# Assay results reported in patent publication US20260285853A1, “COMPOUNDS AND METHODS FOR MODULATING SPLICING” (REMIX THERAPEUTICS INC., priority 2023, published 2026).
# Read-outs that look alike come from different tables or passages of the source.
# What was measured:
# Type in all cases: cell-based
# [1] = system: MYB mRNA; test: Splicing RT-qPCR assay (THP), Table 2A
# [2] = system: HTT mRNA; test: Splicing RT-qPCR assay (THP), Table 2A
# [3] = system: HTT mRNA; test: Gene panel canonical junction qPCR assay, decrease in CJ mRNA, Table 3
# Outline: (§1)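 IC50 is the concentration giving 50% response in decrease of the canonical junction transcript, fitted with a 4-parameter logistic equation. Transcripts were quantified by RT-qPCR in A673 or K562 cells after 24 h exposure to compounds dosed up to 10 uM in 3-fold steps.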
# [4] = system: MYB mRNA; test: as above
# Outline: as §1
# [5] = system: SH-SY5Y (human neuroblastoma) cells; test: Cell viability, Cell Titer Glo 2.0 assay; conditions: read-out: Viability SHSY5Y.3 GI50
# Outline: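 Steps: serial DMSO dilution of compound, 1:100 dilution into medium, addition to cells (0.1% DMSO final). Incubate 72 h at 37 °C, 5% CO2. Assay with CellTiter-Glo 2.0 reagent.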
# [6] = Table 2A, THP, MYB alternative junction (AJ) mRNA, read-out: MYB AJ (AC50, increase in alternative junction mRNA)
# [7] = Table 2A, THP, MYB canonical junction (CJ) mRNA, read-out: MYB CJ (IC50, decrease in canonical junction mRNA)
# [8] = Table 2A, THP, HTT alternative junction (AJ) mRNA, read-out: HTT AJ (AC50, increase in alternative junction mRNA)
# [9] = Table 2A, THP, HTT canonical junction (CJ) mRNA, read-out: HTT CJ (IC50, decrease in canonical junction mRNA)
# [10] = decrease in CJ mRNA levels, canonical junction qPCR, gene panel
# [11] = Table 2A (THP), AJ mRNA increase, read-out: MYB AJ (increase in alternative junction mRNA, AC50)
# [12] = Table 2A (THP), CJ mRNA decrease, read-out: MYB CJ (decrease in canonical junction mRNA, IC50)
# [13] = Table 2A (THP), AJ mRNA increase, read-out: HTT AJ (increase in alternative junction mRNA, AC50)
# [14] = Table 2A (THP), CJ mRNA decrease, read-out: HTT CJ (decrease in canonical junction mRNA, IC50)
# [15] = decrease in canonical junction (CJ) mRNA, gene panel qPCR, Table 3
"IC50 [1, 7] [nM]","IC50 [2, 9] [µM]","IC50 [3, 10] [µM]","IC50 [4, 10] [nM]",GI50 [5] [nM],"IC50 [1, 12] [nM]","IC50 [2, 14] [µM]","IC50 [3, 15] [µM]","IC50 [4, 15] [nM]",SMILES,"AC50 [1, 6] [nM]","AC50 [2, 8] [µM]","AC50 [1, 11] [nM]","AC50 [2, 13] [µM]"
< 100,0.1 to 1,0.1 to 1,< 100,100 to 1000,,,,,"COc1nc2c(C(=O)Nc3cc(F)c4nn(C)cc4c3)ccc(N3CCN4CCC[C@H]4C3)c2s1 [Compound 745, 7-[(8aS)-3,4,6,7,8,8a-hexahydro-1H-pyrrolo[1,2-a]pyrazin-2-yl]-N-(7-fluoro-2-methyl-indazol-5-yl)-2-methoxy-1,3-benzothiazole-4-carboxamide]",< 100,0.1 to 1,,
,,,,1000 to 10000,100 to 1000,> 10,> 10,100 to 1000,"COc1cn2nc(C)cc2cc1NC(=O)c1ccc(N2CCC(NC3CC3)CC2)c2cn(C)nc12 [Compound 475, 4-[4-(cyclopropylamino)-1-piperidyl]-N-(6-methoxy-2-methyl-pyrazolo[1,5-a]pyridin-5-yl)-2-methyl-indazole-7-carboxamide]",,,100 to 1000,> 10
,,,,> 10000,> 10000,> 10,> 10,> 10000,"Cc1cn2cc(NC(=O)c3ccc(N4CCC(NC5CC5)CC4)c4cn(C)nc34)cc2c(CNS(C)(=O)=O)n1 [Compound 570, 4-[4-(cyclopropyl-amino)-1-piperidyl]-N-[1-(methanesulfonamidometh-yl)-3-methyl-pyrrolo[1,2-a]-pyrazin-7-yl]-2-methyl-indazole-7-carboxamide]",,,> 10000,> 10
,,,,> 10000,> 10000,> 10,> 10,> 10000,Cc1cn2cc(NC(=O)c3ccc(OC4CCNC4)c4cn(C)nc34)nc2c(C)n1 (stereo not drawn) [Compound 537],,,> 10000,> 10
< 100,0.1 to 1,0.1 to 1,< 100,< 100,,,,,"COc1nc2c(C(=O)Nc3ccc4nn(C)cc4n3)ccc(N3C[C@H](C)N[C@@H](C)C3)c2s1 [Compound 714, 7-[(3S,5S)-3,5-dimethylpiperazin-1-yl]-2-methoxy-N-(2-methylpyrazolo[4,3-b]pyridin-5-yl)-1,3-benzothiazole-4-carboxamide]",< 100,0.1 to 1,,
1000 to 10000,> 10,> 10,1000 to 10000,> 10000,,,,,CNC1CCN(c2ccc(C(=O)Nc3cn4cc(C)nc(CNS(C)(=O)=O)c4n3)c3nn(C)cc23)CC1 [Compound 825],1000 to 10000,> 10,,
,,,,1000 to 10000,< 100,> 10,> 10,< 100,"CCNC1CCN(c2cc(F)c(C(=O)Nc3cn4cc(C)nc(C)c4c3F)c3nn(C)cc23)CC1 [Compound 468, 4-[4-(ethylamino)-1-piperidyl]-6-fluoro-N-(8-fluoro-1,3-dimethyl-pyrrolo[1,2-a]pyrazin-7-yl)-2-methyl-indazole-7-carboxamide]",,,< 100,> 10
1000 to 10000,1 to 10,1 to 10,1000 to 10000,1000 to 10000,,,,,Cc1cn2cc(NC(=O)c3ccc(N4CCC(N(C)C5CC5)CC4)c4cn(C)nc34)nc2c(CNS(C)(=O)=O)n1 [Compound 777],1000 to 10000,1 to 10,,
> 10000,> 10,> 10,> 10000,> 10000,,,,,"Cc1cn2cc(NC(=O)c3ccc(N4CCC(NC5CC5)CC4)c4cn(C)nc34)nc2c(CCN)n1 [Compound 753, N-[8-(2-aminoethyl)-6-methyl-imidazo[1,2-a]pyrazin-2-yl]-4-[4-(cyclopropylamino)-1-piperidyl]-2-methyl-indazole-7-carboxamide]",> 10000,> 10,,
,,,,1000 to 10000,> 10000,1 to 10,1 to 10,> 10000,"Cc1cn2cc(NC(=O)c3ccc(N4CCC(NC5CC5)CC4)c4cn(C)nc34)nc2c(-c2ccn[nH]2)n1 [Compound 487, 4-(4-(cyclopropyl-amino)piperidin-1-yl)-2-methyl-N-(6-methyl-8-(1H-pyrazol-5-yl)imidazo[1,2-a]-pyrazin-2-yl)-2H-indazole-7-carboxamide 2,2,2-trifluoroacetate]",,,> 10000,> 10
100 to 1000,1 to 10,1 to 10,100 to 1000,1000 to 10000,,,,,COc1nc2c(C(=O)Nc3cc4cn(C)nc4c(F)c3OC)ccc(N3C[C@H](C)N[C@@H](C)C3)c2s1 [Compound 786],100 to 1000,1 to 10,,
100 to 1000,> 10,> 10,100 to 1000,100 to 1000,,,,,Cc1cc2c(N3CCC(NC4CC4)CC3)ccc(C(=O)Nc3cc(CNS(C)(=O)=O)c4nn(C)cc4c3)n2n1 [Compound 822],100 to 1000,> 10,,
< 100,< 0.1,< 0.1,< 100,< 100,,,,,COc1nc2c(C(=O)Nc3cc(F)c4nn(C)cc4c3)ccc(N3CCN[C@@H](C)C3)c2s1 [Compound 766],< 100,< 0.1,,
1000 to 10000,1 to 10,1 to 10,1000 to 10000,1000 to 10000,,,,,"COc1c(NC(=O)c2ccc(N3CCC(NC4CC4)CC3)c3cc(C)nn23)cn2cc(C)nc(C)c12 [Compound 630, 4-[4-(cyclopropylamino)-1-piperidyl]-N-(8-methoxy-1,3-dimethyl-pyrrolo[1,2-a]pyrazin-7-yl)-2-methyl-pyrazolo[1,5-a]pyridine-7-carboxamide]",1000 to 10000,1 to 10,,
< 100,1 to 10,1 to 10,< 100,100 to 1000,,,,,"COc1nc2c(C(=O)Nc3cn4cc(C)nc4c(F)c3OC)ccc(N3C[C@H](C)N[C@@H](C)C3)c2s1 [Compound 764, 7-((3S,5S)-3,5-dimethylpiperazin-1-yl)-N-(8-fluoro-7-methoxy-2-methylimidazo[1,2-a]pyridin-6-yl)-2-methoxybenzo[d]thiazole-4-carboxamide 2,2,2-trifluoroacetate]",< 100,> 10,,
< 100,0.1 to 1,0.1 to 1,< 100,100 to 1000,,,,,CCNC1CCN(c2cc(Br)c(C(=O)Nc3cn4cc(C)nc4c(F)c3OC)c3nn(C)cc23)CC1 [Compound 723],< 100,0.1 to 1,,
,,,,100 to 1000,< 100,1 to 10,1 to 10,< 100,"COc1nc2nc(C)cn2cc1NC(=O)c1c(F)cc(N2CCC(NC3CC3)CC2)c2cn(C)nc12 [Compound 398, 4-[4-(cyclopropylamino)-1-piperidy1]-6-fluoro-N-(7-methoxy-2-methyl-imidazo-[1,2-a]pyrimidin-6-yl)-2-methyl-indazole-7-carboxamide]",,,< 100,1 to 10
,,,,1000 to 10000,< 100,0.1 to 1,0.1 to 1,< 100,COc1cc2nn(C)cc2cc1NC(=O)c1ccc(N2CCC3(CCCN3)CC2)c2cn(C)nc12 [Compound 541],,,< 100,0.1 to 1
,,,,> 10000,1000 to 10000,> 10,> 10,1000 to 10000,"COc1c(NC(=O)c2c(F)cc(N3CCS(=N)(=O)CC3)c3cn(C)nc23)cn2cc(C)nc2c1F [Compound 330, 6-fluoro-N-(8-fluoro-7-meth-oxy-2-methyl-imidazo[1,2-a]-pyridin-6-yl)-4-(1-imino-1-oxo-1,4-thiazinan-4-yl)-2-methyl-indazole-7-carboxamide]",,,100 to 1000,> 10
> 10000,> 10,> 10,> 10000,> 10000,,,,,CCNC1CCN(c2ccc(C(=O)Nc3cc(CCC(N)=O)c4nn(C)cc4c3)c3nn(C)cc23)CC1 [Compound 875],> 10000,> 10,,
,,,,1000 to 10000,1000 to 10000,1 to 10,1 to 10,1000 to 10000,"C=CCNC1CCN(c2ccc(C(=O)Nc3cn4cc(C)nc(C)c4c3OC)c3nn(C)cc23)CC1 [Compound 458, 4-[4-(allylamino)-1-piperidyl]-N-(8-methoxy-1,3-dimethyl-pyrrolo[1,2-a]pyrazin-7-yl)-2-methyl-indazole-7-carboxamide]",,,1000 to 10000,1 to 10
